Experimental data taken from publication PMC9504268, “Testing the Protective Effects of Sulfobutylether-Βeta-Cyclodextrin (SBECD) and Sugammadex against Chlorpromazine-Induced Acute Toxicity in SH-SY5Y Cell Line and in NMRI Mice” (Pharmaceutics, 2022).
Structures can show the parent of a compound that is named as a salt. Where two headings read alike, the source gives them in different places.

Assays:
[1] = test system: HeLa cells; set-up: method as in PMID 36031178; conditions: cited from earlier work
[2] = set-up: method as in PMID 16553456; conditions: in regard to cholesterol; cited from earlier work
[3] = set-up: method as in PMID 31726616, PMID 36031178; conditions: complexes with zearalenone; cited from earlier work
[4] = set-up: method as in PMID 32376444; conditions: CPZ complex, cited from earlier work
[5] = veratridine toxin–CD complexes; cited from earlier work
[6] = test system: NMRI mice; test: in vivo; assay type: in vivo; conditions: typically
Procedure: (§1) Female NMRI mice weighing 25–35 g were used for the experiments. Animals were kept in the Laboratory Animal House of the Department of Pharmacology and Pharmacotherapy (University of Pécs) under standard pathogen-free conditions, and were provided with food pellets and water ad libitum. Mice were weighed then treated intraperitoneally (i.p.) with CPZ (120–300 mg/kg, 10 mL/kg, dissolved in physiological saline). Since CPZ typically provoked convulsions after 2 min, SBECD or SGD (500 or 2000 mg/kg, 10 mL/kg, dissolved in physiological saline) was administered i.v. immediately after the CPZ treatment. Control animals were treated with physiological saline (10 mL/kg i.p. and/or i.v.). Before and after the treatment, mice could consume feed and water ad libitum.
(§2) We decided to administer CPZ intraperitoneally because it leads to the more rapid appearance of the drug in the systemic circulation compared to the per os treatment. […] However, we applied CDs (SBECD or SGD) intravenously to produce immediately their high plasma concentrations as well as to avoid any potential local interactions of CDs with CPZ in the abdominal cavity.
(§3) In agreement with the 3Rs, the up-and-down method was used. One animal is treated at a time, starting around the LD50 value estimated. If the animal survived, then the following animal was treated with a higher dose. If the animal died, then the following animal was treated with a lower dose. This method provides a good estimation of LD50, while the number of animals sacrificed can be minimized. LD50 values were determined with the Probit Analysis (CI = 95%) as has been reported.

[7] = in vivo; assay type: in vivo, mice; conditions: female, NMRI, mouse, in vivo, female NMRI mice, read-out: LD50 (based on 24 h mortality)
Procedure: as §1, §2, §3

[8] = test system: SH-SY5Y cells; test: SH-SY5Y cell viability based on total protein levels (fluorescamine); set-up: species or system human; conditions: 24 h
Procedure: The SH-SY5Y cell line (neuroblastoma, human; ATCC: CRL-2266) was maintained in DMEM supplemented with 10% FBS, penicillin (100 U/mL) and streptomycin (100 µg/mL) and incubated at 37 °C in a humidified environment with 5% CO2. Cells were trypsinized then transferred to 96-well plates (10^4 cells/well). Next day, the medium has been replaced and cells were treated for 24 h with CPZ (0–100 μM), with CDs (0–1500 μM), or with the combinations of CPZ and CDs (final volume: 200 μL/well). After 24 h treatment of cells with CPZ and/or CDs, cells were washed three times with 200 μL of PBS (pH 7.4; also containing 0.18 g/L CaCl2, and 0.2 g/L MgCl2). […]
Since certain compounds can modify cellular ATP levels (which can disrupt the correlation of ATP concentration with the number of living cells), total protein measurements were also performed to confirm the ATP-based results. Total protein levels were determined with fluorescamine (Fluram) reagent, as has been previously reported. […] After homogenization, the fluorescence signals of these samples were determined with Enspire Multimode plate reader (PerkinElmer) employing 385 nm and 490 nm as excitation and emission wavelengths, respectively. Total protein concentrations were determined based on bovine serum albumin calibration curve. […]

[9] = test system: several different cell lines; set-up: method as in PMID 4801078, PMID 6896707, PMID 23689352; conditions: cited from earlier work
[10] = test system: mice; set-up: method as in PMID 5630492, PMID 13813939; conditions: cited from earlier work
[11] = test system: SH-SY5Y cells; test: SH-SY5Y cell viability based on cellular ATP levels (luciferin-luciferase); set-up: species or system human; conditions: 24 h
Procedure: The SH-SY5Y cell line (neuroblastoma, human; ATCC: CRL-2266) was maintained in DMEM supplemented with 10% FBS, penicillin (100 U/mL) and streptomycin (100 µg/mL) and incubated at 37 °C in a humidified environment with 5% CO2. Cells were trypsinized then transferred to 96-well plates (10^4 cells/well). Next day, the medium has been replaced and cells were treated for 24 h with CPZ (0–100 μM), with CDs (0–1500 μM), or with the combinations of CPZ and CDs (final volume: 200 μL/well). After 24 h treatment of cells with CPZ and/or CDs, cells were washed three times with 200 μL of PBS (pH 7.4; also containing 0.18 g/L CaCl2, and 0.2 g/L MgCl2). Since cell death results in the detachment of cells from the plate, these floating cells and cell debris were removed from the well during these washing steps. Cells were lysed with 200 μL of borate buffer (0.2 M, pH 9.2) containing Triton X-100 (0.1%) detergent and ethylenediaminetetraacetic acid (EDTA, 20 mM), then the plate was placed in a shaker for 5 min. These lysates were applied in cellular ATP and total protein analyses.
The changes in cell viability were primarily evaluated based on ATP levels. ATP content is an indicator of metabolically active cells; therefore, cellular ATP concentration is a suitable parameter to assess the number of viable cells. ATP levels were quantified based on the luciferin-luciferase reaction adapted for microplate method, as has been described earlier. To quantify cellular ATP concentrations, a 10 μL/well volume of lysates was transferred into white 96-well optical plates (VWR, Debrecen, Hungary), after which 100 μL/well of the dissolved ATP reagent was added. Luminescence data of ATP standards and samples were measured with 5 s integration time, employing an Enspire Multimode reader (Perkin Elmer, Waltham, MA, US).
IC50 values were determined by sigmoidal fitting (Hill1) employing the Origin software (OriginLab Corporation, Northampton, MA, US). Statistical analyses were performed employing one-way ANOVA (with Tukey post hoc) test using the IBM SPSS Statistics software (Armonk, NY, US), where the level of significance was set as p < 0.01.

[12] = Homo sapiens, SH-SY5Y cells, sigmoidal fitting

OC[C@H]1O[C@@H]2O[C@H]3[C@H](O)[C@@H](O)[C@@H](O[C@H]4[C@H](O)[C@@H](O)[C@@H](O[C@H]5[C@H](O)[C@@H](O)[C@@H](O[C@H]6[C@H](O)[C@@H](O)[C@@H](O[C@H]7[C@H](O)[C@@H](O)[C@@H](O[C@H]8[C@H](O)[C@@H](O)[C@@H](O[C@H]1[C@H](O)[C@H]2O)O[C@@H]8CO)O[C@@H]7CO)O[C@@H]6CO)O[C@@H]5CO)O[C@@H]4CO)O[C@@H]3CO [β-CD]
effect on alternariol-induced cytotoxicity [1]: did not affect

CC(O)COC[C@H]1O[C@@H]2O[C@H]3[C@H](O)[C@@H](O)[C@@H](O[C@H]4[C@H](O)[C@@H](O)[C@@H](O[C@H]5[C@H](O)[C@@H](O)[C@@H](O[C@H]6[C@H](O)[C@@H](O)[C@@H](O[C@H]7[C@H](O)[C@@H](O)[C@@H](O[C@H]8[C@H](O)[C@@H](O)[C@@H](O[C@H]1[C@H](O)[C@H]2O)O[C@@H]8COCC(C)O)O[C@@H]7COCC(C)O)O[C@@H]6COCC(C)O)O[C@@H]5COCC(C)O)O[C@@H]4COCC(C)O)O[C@@H]3COCC(C)O (stereo partly drawn) [HPBCD, hydroxypropyl-β-CD]
binding constant [2]: 20000 L/mol

dimethyl-β-CD
binding constant [2]: 600000 L/mol

methyl-β-CD
binding constant [3]: 10000 to 50000 L/mol

OC[C@H]1O[C@@H]2O[C@H]3[C@H](O)[C@@H](O)[C@@H](O[C@H]4[C@H](O)[C@@H](O)[C@@H](O[C@H]5[C@H](O)[C@@H](O)[C@@H](O[C@H]6[C@H](O)[C@@H](O)[C@@H](O[C@H]7[C@H](O)[C@@H](O)[C@@H](O[C@H]8[C@H](O)[C@@H](O)[C@@H](O[C@H]9[C@H](O)[C@@H](O)[C@@H](O[C@H]1[C@H](O)[C@H]2O)O[C@@H]9CO)O[C@@H]8CO)O[C@@H]7CO)O[C@@H]6CO)O[C@@H]5CO)O[C@@H]4CO)O[C@@H]3CO [γ-CD]
binding constant (K), 1:1 complexes ([4]; 1:1): 500 L/mol
binding constant (K), 1:2 complexes ([4]; 1:2): 6000 L/mol
binding constant (K) [5]: approximately 10^4 L/mol

succinyl–methyl-β-CD
binding constant [3]: 10000 to 50000 L/mol

CN(C)CCCN1c2ccccc2Sc2ccc(Cl)cc21 [CPZ, Chlorpromazine hydrochloride]
time after which CPZ provoked convulsions ([6]; CPZ i.p. 120–300 mg/kg): 2 min
time in which CPZ caused its lethal impact ([6]; CPZ i.p., with a few exceptions): ≤ 2 h
LD50 ([7]; 500 mg/kg, CPZ i.p. + 500 mg/kg SBECD i.v.): 206 mg/kg
LD50 ([7]; 500 mg/kg, CPZ i.p. + 500 mg/kg SGD i.v.): 200 mg/kg
LD50 ([7]; 2000 mg/kg, CPZ i.p. + 2000 mg/kg SBECD i.v.): 233 mg/kg
LD50 ([7]; 2000 mg/kg, CPZ i.p. + 2000 mg/kg SGD i.v.): 172 mg/kg
LD50 ([7]; CPZ i.p., control (physiological saline i.v.)): 194 mg/kg
decrease in total protein levels ([8]; 20 μM CPZ): approximately 60%
IC50 [8, 12]: 15.1 µM
concentration range of significant toxic effects [9]: 10 to 60 µM
i.p. LD50 [10]: 150 to 220 mg/kg
concentration showing close the maximal toxicity ([11]; 0–100 μM tested): 50 µM
lowest concentration causing statistically significant (p < 0.01) decrease of ATP and total protein levels/well ([11]; 0–100 μM tested): 5 µM
decrease in ATP levels ([11]; 20 μM CPZ): approximately 60%
IC50 [11, 12]: 16 µM
